Where two headings read alike, the source gives them in different places.
Test system: 2-phenyl-1,4-benzoquinone-induced writhing
Experiment: 2-phenyl-1,4-benzoquinone-induced writhing test in mice (analgesia)
Type: in vivo
Conditions: Mus musculus, read-out: Inhibition of Writhing ED50
From the text: Compounds of the present invention are useful as analgesic agents due to their ability to alleviate pain in mammals. […] Exptl. Biol. Med. 95, 729 (1957)]. The analgesic activity of some of the compounds expressed in terms of the ED50 values for inhibition of writhing are given in TABLE I.

Row | SMILES | ED50 (sc, subcutaneous) [mg/kg] | ED50 (oral) [mg/kg]
1 | CN1CC[C@@]2(C)c3cc(OC(=O)Oc4ccc(Cl)cc4)ccc3N(C)[C@@H]12.O=C(O)/C=C/C(=O)O (relative stereo) [4-Chlorophenyl (3aS-cis)-1,2,3,3a,8,8a-hexahydro-1,3a,8-trimethylpyrrolo [2,3-b]indol-5-yl carbonate fumarate] | 0.74 | 
2 | CN1CC[C@@]2(C)c3cc(OC(=O)OC(C)(C)C)cc(Br)c3N(C)[C@@H]12 [(3aS-cis)-7-Bromo-1,2,3,3a,8,8a-hexahydro-1,3a,8-trimethylpyrrolo[2,3-b]indol-5-yl t-butyl carbonate sesquifumarate] | 0.16 | 0.4
3 | CN1CC[C@@]2(C)c3cc(O)ccc3N(C)[C@@H]12 [eseroline salicylate, reference compound] | 0.52 | 

Source: patent publication US4971992A, “Carbonate derivatives of eseroline” (priority 1989, dated 1990)
